The results in this text go back to US20240018138A1, “PYRIDO[4,3-b]INDOLE DERIVATIVES AND THEIR USE AS PHARMACEUTICALS” (Ventus Therapeutics U.S., Inc., priority 2020, published 2024).

In general, IC50 refers to the concentration needed to halve the response being measured.

The assay addresses h-cGAS (Homo sapiens (Human), UniProt Q8N884). Briefly: h-cGAS Kinase-Glo assay. It counts as biochemical. Conditions: Kinase-Glo Max; 40 nM h-cGAS, 100 uM ATP, 100 uM GTP, 25 nM dsDNA, 2 h incubation. (In general: In Kinase-Glo more light means more ATP remaining.)

h-cGAS, sequence (Q8N884 whole entry): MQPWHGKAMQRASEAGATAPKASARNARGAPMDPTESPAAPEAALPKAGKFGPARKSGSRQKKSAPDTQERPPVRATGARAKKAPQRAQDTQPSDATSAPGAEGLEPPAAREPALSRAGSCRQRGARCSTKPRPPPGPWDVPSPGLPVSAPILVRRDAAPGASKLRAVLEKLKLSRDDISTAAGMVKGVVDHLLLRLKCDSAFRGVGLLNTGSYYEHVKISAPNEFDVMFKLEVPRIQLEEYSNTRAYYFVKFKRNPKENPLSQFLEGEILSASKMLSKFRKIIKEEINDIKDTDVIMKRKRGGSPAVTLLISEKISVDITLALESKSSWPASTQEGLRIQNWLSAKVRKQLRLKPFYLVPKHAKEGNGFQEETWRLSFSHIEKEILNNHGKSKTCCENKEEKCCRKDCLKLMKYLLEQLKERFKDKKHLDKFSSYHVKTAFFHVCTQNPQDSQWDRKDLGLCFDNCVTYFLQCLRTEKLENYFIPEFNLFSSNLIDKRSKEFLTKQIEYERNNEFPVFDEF

Regarding `COCC(=O)N1[C@H](C)Cc2[nH]c3c(Cl)c(Cl)ccc3c2[C@@H]1C` [Compound 104], the IC50 came out at 51.7 nM.

As to `COCC(=O)N1CCc2[nH]c3c(Cl)c(Cl)cc(-c4ccn(C)n4)c3c2[C@H]1C` [Compound 105], the IC50 came to 3820 nM.

As to `COCC(=O)N1CCc2[nH]c3c(Cl)c(Cl)cc(-c4ccn(C)n4)c3c2[C@@H]1C` [Compound 106], the IC50 amounted to 4550 nM.

Take `COCC(=O)N1CCc2[nH]c3c(Cl)c(F)ccc3c2[C@H]1C` [Compound 107]: the IC50 was 51.8 nM.

Turning to `COCC(=O)N1[C@@H](C)Cc2[nH]c3c(Cl)c(Cl)ccc3c2[C@@H]1C` [Compound 108], inhibition was half-maximal at 62.3 nM (IC50).

Compound `COCC(=O)N1[C@H](C)Cc2[nH]c3c(Cl)c(Cl)ccc3c2[C@@H]1C` [Compound 109] came in with an IC50 of 15.1 nM.

`COCC(=O)N1Cc2c([nH]c3c(Cl)c(Cl)ccc23)C2CCCCC21` (centres unmarked) [Compound 110] had an IC50 of 2230 nM.

The compound `COCC(=O)N1Cc2c([nH]c3c(Cl)c(Cl)ccc23)C[C@@H]1C` [Compound 111] came in with an IC50 of 401 nM.

`COCC(=O)N1Cc2c([nH]c3c(Cl)c(Cl)ccc23)C[C@H]1C` [Compound 112] registered an IC50 of 236 nM.

`COCC(=O)N1Cc2c([nH]c3c(Cl)c(Cl)ccc23)CC1Cc1ccccc1` (centres unmarked) [Compound 113]: half-maximal inhibition (IC50) required 4230 nM.

For the compound `COCC(=O)N1Cc2c([nH]c3c(Cl)c(Cl)ccc23)C[C@@H]1C(C)C` [Compound 114], half-maximal inhibition (IC50) required 718 nM.

Consider `COCC(=O)N1Cc2c([nH]c3c(Cl)c(Cl)ccc23)C[C@H]1C(F)(F)F` [Compound 115], for which the IC50 was 1380 nM.

In turn, `COCC(=O)N1Cc2c([nH]c3c(Cl)c(Cl)cc(-c4ccn(C)n4)c23)C[C@H]1C` [Compound 116] showed an IC50 of 157 nM.

`COCC(=O)N1Cc2c([nH]c3c(Cl)c(Cl)cc(-c4ccn(C)n4)c23)C[C@@H]1C` [Compound 117] returned a concentration for half-maximal inhibition (IC50) of 221 nM.

On to `COCC(=O)N1Cc2c([nH]c3c(F)c(Cl)ccc23)C[C@@H]1C` [Compound 118], for which the IC50 was determined as 316 nM.

Compound `CC[C@H]1Cc2[nH]c3c(Cl)c(Cl)ccc3c2CN1C(=O)COC` [Compound 119] came in with an IC50 of 470 nM.

The compound `COCC(=O)N1Cc2c([nH]c3c(F)c(Cl)ccc23)C[C@H]1C` [Compound 120] came in with an IC50 of 361 nM.

In turn, `COCC(=O)N1Cc2c([nH]c3c(Br)c(Cl)ccc23)C[C@H]1C` [Compound 121] yielded an IC50 of 7630 nM.

`COCC(=O)N1Cc2c([nH]c3c(Cl)c(Br)ccc23)C[C@H]1C` [Compound 122] came in with an IC50 of 205 nM.

Take `COCC(=O)N1Cc2c([nH]c3c(Br)c(Cl)ccc23)C[C@@H]1C` [Compound 123]: it took 133 nM to reach half-maximal inhibition (IC50).

For `COCC(=O)N1Cc2c([nH]c3c(Cl)c(F)ccc23)C[C@H]1C` [Compound 124], the IC50 stood at 1330 nM.

In turn, `COCC(=O)N1Cc2c([nH]c3c(Cl)c(C)ccc23)C[C@@H]1C` [Compound 125] registered an IC50 of 756 nM.

Compound `COCC(=O)N1Cc2c([nH]c3c(F)c(Br)ccc23)C[C@H]1C` [Compound 126] registered an IC50 of 387 nM.
